From ChEMBL document CHEMBL1212772

Experiments:
[1] = target: Beta-lactamase (Pseudomonas aeruginosa (strain ATCC 15692 / PAO1 / 1C / PRS 101 / LMG12228)) (UniProt P24735); assay: Activity of Pseudomonas aeruginosa AmpC relative to Cephaloridine
[2] = target: Beta-lactamase (Enterobacter cloacae) (UniProt P05364); assay: Kcat/Km ratio of Enterobacter cloacae AmpC relative to Cephaloridine
Klebsiella oxytoca [3] = assay: Activity of Klebsiella oxytoca Beta-lactamase K1 relative to Cephaloridine
[4] = target: Carbapenem-hydrolyzing beta-lactamase KPC (Klebsiella pneumoniae) (UniProt Q9F663); assay: Activity of Klebsiella pneumoniae KPC-2 relative to Cephaloridine
[5] = target: Carbapenem-hydrolyzing beta-lactamase KPC (Klebsiella pneumoniae) (UniProt Q9F663); assay: Kcat/Km ratio of Klebsiella pneumoniae KPC-2 relative to Cephaloridine
[6] = target: Beta-lactamase (Escherichia coli) (UniProt Q53TY8); assay: Kcat/Km ratio of Escherichia coli CMY-2 relative to Cephaloridine
[7] = target: Beta-lactamase (Pseudomonas aeruginosa (strain ATCC 15692 / PAO1 / 1C / PRS 101 / LMG12228)) (UniProt P24735); assay: Kcat/Km ratio of Pseudomonas aeruginosa AmpC relative to Cephaloridine
[8] = target: T1, Beta-lactamase IMP-1 (Pseudomonas aeruginosa) (UniProt Q8G9Q0); assay: Activity of Pseudomonas aeruginosa IMP-1 relative to Cephaloridine
T1 sequence (whole entry): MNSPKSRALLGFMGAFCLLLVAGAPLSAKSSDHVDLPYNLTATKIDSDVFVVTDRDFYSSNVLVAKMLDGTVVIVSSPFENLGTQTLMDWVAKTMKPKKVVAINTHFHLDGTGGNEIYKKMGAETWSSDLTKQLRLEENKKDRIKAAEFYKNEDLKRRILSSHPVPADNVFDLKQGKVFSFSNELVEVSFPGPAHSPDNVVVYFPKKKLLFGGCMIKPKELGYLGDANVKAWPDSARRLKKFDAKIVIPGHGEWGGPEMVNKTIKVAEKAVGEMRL

[9] = target: Beta-lactamase (Escherichia coli) (UniProt Q53TY8); assay: Activity of Escherichia coli CMY-2 relative to Cephaloridine
[10] = target: Beta-lactamase (Enterobacter cloacae) (UniProt P05364); assay: Activity of Enterobacter cloacae AmpC relative to Cephaloridine
[11] = target: Beta-lactamase OXA-23 (Acinetobacter baumannii) (UniProt Q9L4P2); assay: Kcat/Km ratio of Acinetobacter baumannii OXA-23 relative to Cephaloridine
[12] = target: T2, Carbapenem-hydrolyzing beta-lactamase SME-3 (Serratia marcescens) (UniProt Q6PRG8); assay: Kcat/Km ratio of Serratia marcescens SME-3 relative to Cephaloridine
T2 sequence (whole entry): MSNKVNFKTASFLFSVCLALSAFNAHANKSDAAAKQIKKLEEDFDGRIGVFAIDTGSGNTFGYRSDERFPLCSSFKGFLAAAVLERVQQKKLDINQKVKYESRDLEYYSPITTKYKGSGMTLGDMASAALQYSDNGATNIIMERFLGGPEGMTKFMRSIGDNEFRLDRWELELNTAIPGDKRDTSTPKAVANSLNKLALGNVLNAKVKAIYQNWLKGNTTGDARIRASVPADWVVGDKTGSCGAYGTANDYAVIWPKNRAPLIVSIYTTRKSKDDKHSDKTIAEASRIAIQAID

Escherichia coli [13] = assay: Kcat/Km ratio of Klebsiella pneumoniae Beta-lactamase TEM-26 relative to Cephaloridine
[14] = target: T1, Beta-lactamase IMP-1 (Pseudomonas aeruginosa); assay: Kcat/Km ratio of Pseudomonas aeruginosa IMP-1 relative to Cephaloridine
[15] = target: T3, Beta-lactamase SHV-1 (Klebsiella pneumoniae) (UniProt P0AD64); assay: Kcat/Km ratio of Klebsiella pneumoniae SHV-1 relative to Cephaloridine
T3 sequence (whole entry): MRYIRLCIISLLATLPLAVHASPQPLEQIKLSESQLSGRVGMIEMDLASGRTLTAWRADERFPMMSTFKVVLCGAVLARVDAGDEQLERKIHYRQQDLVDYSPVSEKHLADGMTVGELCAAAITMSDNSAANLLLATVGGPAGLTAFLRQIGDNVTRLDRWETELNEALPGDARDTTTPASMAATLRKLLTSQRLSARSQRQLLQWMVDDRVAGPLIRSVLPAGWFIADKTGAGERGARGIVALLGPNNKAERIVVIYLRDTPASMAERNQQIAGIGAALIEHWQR

Klebsiella pneumoniae = assay: Activity of Klebsiella pneumoniae Beta-lactamase TEM-26
[16] = target: T2, Carbapenem-hydrolyzing beta-lactamase SME-3 (Serratia marcescens); assay: Activity of Serratia marcescens SME-3 relative to Cephaloridine
[17] = target: Beta-lactamase TEM (Escherichia coli) (UniProt P62593); assay: Kcat/Km ratio of Escherichia coli TEM-1 relative to Cephaloridine
Klebsiella oxytoca [18] = assay: Kcat/Km ratio of Klebsiella oxytoca Beta-lactamase K1 relative to Cephaloridine
Escherichia coli [19] = assay: Kcat/Km ratio of Klebsiella pneumoniae Beta-lactamase TEM-26
[20] = target: Beta-lactamase CTX-M (Escherichia coli) (UniProt Q9EXV5); assay: Activity of Escherichia coli CTX-M-15 relative to Cephaloridine
[21] = target: Beta-lactamase CTX-M (Escherichia coli) (UniProt Q9EXV5); assay: Kcat/Km ratio of Escherichia coli CTX-M-15 relative to Cephaloridine
Escherichia coli [22] = assay: Activity of Klebsiella pneumoniae Beta-lactamase TEM-26 relative to Cephaloridine
[23] = target: Beta-lactamase OXA-10 (Pseudomonas aeruginosa) (UniProt P14489); assay: Activity of Pseudomonas aeruginosa OXA-10 relative to Cephaloridine
[24] = target: Beta-lactamase TEM (Escherichia coli) (UniProt P62593); assay: Activity of Escherichia coli TEM-1 relative to Cephaloridine
Klebsiella oxytoca [25] = assay: Activity of Klebsiella oxytoca Beta-lactamase K1
[26] = target: Beta-lactamase OXA-23 (Acinetobacter baumannii) (UniProt Q9L4P2); assay: Activity of Acinetobacter baumannii OXA-23 relative to Cephaloridine
[27] = target: T3, Beta-lactamase SHV-1 (Klebsiella pneumoniae); assay: Activity of Klebsiella pneumoniae SHV-1 relative to Cephaloridine
Klebsiella oxytoca [28] = assay: Kcat/Km ratio of Klebsiella oxytoca Beta-lactamase K1
[29] = tested on: C[C@@H](O)[C@H]1C(=O)N2C(C(=O)O)=C(S[C@@H]3CN[C@H](CNS(N)(=O)=O)C3)[C@H](C)[C@H]12; assay: Activity of Pseudomonas aeruginosa VIM-2
[30] = tested on: C[C@@H](O)[C@H]1C(=O)N2C(C(=O)O)=C(S[C@@H]3CN[C@H](CNS(N)(=O)=O)C3)[C@H](C)[C@H]12; assay: Kcat/Km ratio of Pseudomonas aeruginosa VIM-2
[31] = target: Beta-lactamase VIM-2 (Pseudomonas aeruginosa) (UniProt Q9K2N0); assay: Kcat/Km ratio of Pseudomonas aeruginosa VIM-2 relative to Cephaloridine
[32] = target: Beta-lactamase VIM-2 (Pseudomonas aeruginosa) (UniProt Q9K2N0); assay: Activity of Pseudomonas aeruginosa VIM-2 relative to Cephaloridine
[33] = target: Beta-lactamase OXA-10 (Pseudomonas aeruginosa) (UniProt P14489); assay: Kcat/Km ratio of Pseudomonas aeruginosa OXA-10 relative to Cephaloridine

Row | Compound | Activity [1] [%] | Activity (Klebsiella oxytoca [3]) [%] | Activity [4] [%] | Activity [5] [%] | Activity [6] [%] | Activity [7] [%] | Activity [8] [%] | Activity [9] [%] | Activity (Escherichia coli [13]) [%] | Activity [14] [%] | Km (Klebsiella pneumoniae) [µM] | kcat (Klebsiella pneumoniae) [s⁻¹] | Activity (Klebsiella oxytoca [18]) [%] | kcat/Km (Escherichia coli [19]) [M⁻¹ s⁻¹] | Activity (Escherichia coli [22]) [%] | Activity [23] [%] | Km (Klebsiella oxytoca [25]) [µM] | kcat (Klebsiella oxytoca [25]) [s⁻¹] | Activity [26] [%] | kcat/Km (Klebsiella oxytoca [28]) [M⁻¹ s⁻¹] | also measured
1 | C[C@@H](O)[C@H]1C(=O)N2C(C(=O)O)=C(S[C@@H]3CN[C@H](C(=O)N(C)C)C3)[C@H](C)[C@H]12 | < 0.0063 | 0.002 | 0.92 | 37 | 0.058 | < 1.6 | 9.6 | 1.1e-05 | 0.0079 | 31 | 8.8 | 0.00039 | 0.0024 | 44 | 0.0011 | < 0.031 | 90 | 0.0096 | 0.029 | 110 | Activity [2]: 0.00042%; Activity [10]: 1.2e-05%; Activity [11]: 14.9%; Activity [12]: 18%; Activity [15]: 0.015%; Activity [16]: 0.27%; Activity [17]: 0.00083%; Activity [20]: 0.0022%; Activity [21]: 0.0078%; Activity [24]: 2.3e-05%; Activity [27]: 0.00041%
2 | Beta-lactamase VIM-2 (Pseudomonas aeruginosa) (from UniProt Q9K2N0) |  |  |  |  |  |  |  |  |  |  |  |  |  |  |  |  |  |  |  |  | Km [29]: 83 µM; kcat [29]: 2.4 s⁻¹; kcat/Km [30]: 29000 M⁻¹ s⁻¹
3 | O=C(Cc1cccs1)N[C@@H]1C(=O)N2C(C(=O)[O-])=C(C[n+]3ccccc3)CS[C@H]12 |  |  |  |  |  |  |  |  |  |  | 66 | 37 |  | 560000 |  |  | 110 | 490 |  | 4.5e+06 | 
4 | O=C(Cc1cccs1)N[C@@H]1C(=O)N2C(C(=O)O)=C(/C=C/c3ccc([N+](=O)[O-])cc3[N+](=O)[O-])CS[C@H]12 | 160 |  |  |  | 1800 |  |  | 240 |  |  |  |  |  |  |  |  |  |  |  |  | 
5 | CC(C)(O/N=C(\C(=O)N[C@@H]1C(=O)N2C(C(=O)[O-])=C(C[n+]3ccccc3)CS[C@H]12)c1csc(N)n1)C(=O)O |  | 0.0027 | 0.097 | 0.22 | 0.033 | < 0.48 | 14 |  | 130 | 5.7 | 130 | 95 | 0.0021 | 730000 | 260 | < 0.059 | 140 | 0.013 | < 0.00093 | 93 | Activity [15]: 0.00077%; Activity [27]: 0.0024%
6 | C[C@@H](O)[C@H]1C(=O)N2C(C(=O)O)=C(S[C@@H]3CN[C@H](CNS(N)(=O)=O)C3)[C@H](C)[C@H]12 | < 0.0063 |  |  | 45 | 0.67 | < 1.2 | 41 | 1e-05 | 0.0082 | 28 | 8 | 0.00037 | 0.0033 | 46 | 0.001 | < 0.046 | 45 | 0.0068 | 0.044 | 150 | Activity [2]: 0.00059%; Activity [31]: 34%; Activity [10]: 1.7e-05%; Activity [11]: 31%; Activity [12]: 10%; Activity [15]: 0.027%; Activity [16]: 0.21%; Activity [17]: 0.0022%; Activity [20]: 0.00095%; Activity [21]: 0.0051%; Activity [24]: 2.1e-05%; Activity [27]: 0.00073%; Activity [32]: 2%
7 | CC1(C)S[C@@H]2[C@H](NC(=O)Cc3ccccc3)C(=O)N2[C@H]1C(=O)O | 46 | 160 | 15 | 260 | 420 | 1 | 520 | 3.1 | 2700 | 19 | 5 | 76 | 440 | 1.5e+07 | 210 | 540 | 40 | 800 | 120 | 2e+07 | Activity [11]: 12000%; Activity [33]: 14000%
8 | C[C@@H](O)[C@H]1C(=O)N2C(C(=O)O)=C(SCCNC=N)C[C@H]12 | < 0.031 | 0.019 | 7.9 | 45 |  | < 7 | 70 | 0.0044 | 0.03 | 45 | 14 | 0.0024 | 0.04 | 170 | 0.0065 | < 0.088 | 51 | 0.091 | 0.2 | 1800 | Activity [2]: 0.0066%; Activity [10]: 0.00048%; Activity [11]: 14200%; Activity [12]: 83%; Activity [15]: 0.092%; Activity [16]: 31%; Activity [17]: 0.072%; Activity [20]: 0.09%; Activity [21]: 0.029%; Activity [24]: 0.00097%; Activity [27]: 0.013%
